Among the data in the supplement of paper PMC10307832 are relative viability values, retold here.

Holding throughout (experiment): relative viability (nuclei count vs DMSO), 5 days (fraction); higher = more cells survive
Compound in test [1]: C1=CC=C(C(=C1)C2=CC=C(C=C2)C3=CSC4=C3C(=C(C(=O)N4)C#N)O)O + COc1cccc2cc(-c3nc([C@H]4CC[C@H](C(=O)O)CC4)n4ncnc(N)c34)[nH]c12 [OSI-027] (partner 0.5 µM)
The gist of the method: (§1)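 Dosing by pin tool came one day after lung cancer cell lines were seeded in 1536-well plates, using either one drug or a fixed anchor-drug dose plus five library-drug doses (not always all listed) in √10 steps. After 5 days, nuclei were counted on 4× images. Relative viability is treated-well nuclei count divided by vehicle-well nuclei count, and values are medians of duplicate plates.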

Compound in the test “TGX 221 + Alpelisib”: CC1=CN2C(=O)C=C(N=C2C(=C1)C(C)NC3=CC=CC=C3)N4CCOCC4 [TGX 221] + Cc1nc(NC(=O)N2CCC[C@H]2C(N)=O)sc1-c1ccnc(C(C)(C)C(F)(F)F)c1 [Alpelisib] (partner 2 µM)
The essentials:
as §1

Compound in test [2]: O=C(CCCCCCNC(=O)c1cnc(N(c2ccccc2)c2ccccc2)nc1)NO [Ricolinostat] + C[C@]1(O)C[C@@H](c2nc(-c3ccc4ccc(-c5ccccc5)nc4c3)c3c(N)nccn32)C1 [Linsitinib] (partner 1 µM)
The gist of the method:
as §1

Compound in the test “Ricolinostat + Dasatinib”: O=C(CCCCCCNC(=O)c1cnc(N(c2ccccc2)c2ccccc2)nc1)NO [Ricolinostat] + Cc1nc(Nc2ncc(C(=O)Nc3c(C)cccc3Cl)s2)cc(N2CCN(CCO)CC2)n1 [Dasatinib] (partner 0.075 µM)
The essentials: as §1

Compound in the test “Ricolinostat + AZD7762”: O=C(CCCCCCNC(=O)c1cnc(N(c2ccccc2)c2ccccc2)nc1)NO [Ricolinostat] + NC(=O)Nc1cc(-c2cccc(F)c2)sc1C(=O)N[C@H]1CCCNC1 [AZD7762] (partner 0.2 µM)
The gist of the method:
as §1

Take NCI-H1792: the relative viability in test [1] (first compound 0.253 µM) was 0.688; in test [1] (first compound 2.53 µM), 0.667; in test [1] (first compound 8 µM) it was 0.477; with TGX 221 + Alpelisib (first compound 0.08 µM) it was 0.609; in the test with TGX 221 + Alpelisib (first compound 0.253 µM), 0.599; with TGX 221 + Alpelisib (first compound 0.8 µM), 0.698. The relative viability with TGX 221 + Alpelisib (first compound 2.53 µM) turned out to be 0.511; in the test with TGX 221 + Alpelisib (first compound 8 µM), 0.432; in test [2] (first compound 0.08 µM), 0.438; in test [2] (first compound 0.253 µM) it was 0.545; in test [2] (first compound 0.8 µM), 0.43; in test [2] (first compound 2.53 µM), 0.428. The relative viability was 0.829 with Ricolinostat + Dasatinib (first compound 0.253 µM); 0.718 with Ricolinostat + Dasatinib (first compound 0.8 µM); 0.882 in the test with Ricolinostat + Dasatinib (first compound 2.53 µM); 0.716 in the test with Ricolinostat + AZD7762 (first compound 0.253 µM); 0.581 with Ricolinostat + AZD7762 (first compound 0.8 µM); 0.375 in the test with Ricolinostat + AZD7762 (first compound 2.53 µM).
